Reference: PubChem BioAssay (NCI)
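Exposure lasted 48 hours, with cells grown in 96-well plates and compounds tested at five concentrations. At the TGI there is no net growth.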

Columns and labels:
Assay in all cases: growth of human tumour cells (NCI), 48 h
SF-268 CNS = tested on: SF-268 CNS
NCI-H522 lung = tested on: NCI-H522 lung
BT-549 breast = tested on: BT-549 breast
CCRF-CEM leukemia = tested on: CCRF-CEM leukemia
PC-3 prostate = tested on: PC-3 prostate
HCC-2998 colon = tested on: HCC-2998 colon
NCI-H460 lung = tested on: NCI-H460 lung
HOP-62 NSCLC = tested on: HOP-62 NSCLC
EKVX NSCLC = tested on: EKVX NSCLC
OVCAR-5 ovarian = tested on: OVCAR-5 ovarian
HL-60(TB) leukemia = tested on: HL-60(TB) leukemia
UO-31 renal = tested on: UO-31 renal
A549 NSCLC = tested on: A549 NSCLC
OVCAR-4 ovarian = tested on: OVCAR-4 ovarian
786-0 renal = tested on: 786-0 renal
NCI-H23 lung = tested on: NCI-H23 lung
M14 melanoma = tested on: M14 melanoma
MCF7 breast = tested on: MCF7 breast
HCT-15 colon = tested on: HCT-15 colon
A498 renal = tested on: A498 renal
MDA-MB-231 breast = tested on: MDA-MB-231 breast
SNB-19 CNS = tested on: SNB-19 CNS
NCI/ADR-RES ovarian = tested on: NCI/ADR-RES ovarian
DU-145 prostate = tested on: DU-145 prostate
KM12 colon = tested on: KM12 colon
OVCAR-8 ovarian = tested on: OVCAR-8 ovarian
NCI-H226 lung = tested on: NCI-H226 lung
HCT-116 colon = tested on: HCT-116 colon
MOLT-4 leukemia = tested on: MOLT-4 leukemia
SK-MEL-28 melanoma = tested on: SK-MEL-28 melanoma
LOX IMVI melanoma = tested on: LOX IMVI melanoma
SK-OV-3 ovarian = tested on: SK-OV-3 ovarian
TK-10 renal = tested on: TK-10 renal
COLO 205 colon = tested on: COLO 205 colon
SF-295 CNS = tested on: SF-295 CNS
SK-MEL-2 melanoma = tested on: SK-MEL-2 melanoma
OVCAR-3 ovarian = tested on: OVCAR-3 ovarian
UACC-62 melanoma = tested on: UACC-62 melanoma
SF-539 CNS = tested on: SF-539 CNS
MDA-MB-435 = tested on: MDA-MB-435
HOP-92 NSCLC = tested on: HOP-92 NSCLC
HS 578T breast = tested on: HS 578T breast
CAKI-1 renal = tested on: CAKI-1 renal
RPMI-8226 leukemia = tested on: RPMI-8226 leukemia
HT29 colon = tested on: HT29 colon
SR leukemia = tested on: SR leukemia
MALME-3M melanoma = tested on: MALME-3M melanoma
SK-MEL-5 melanoma = tested on: SK-MEL-5 melanoma
T-47D breast = tested on: T-47D breast
ACHN renal = tested on: ACHN renal
SW-620 colon = tested on: SW-620 colon
UACC-257 melanoma = tested on: UACC-257 melanoma
MDA-N = tested on: MDA-N
K-562 leukemia = tested on: K-562 leukemia
U251 CNS = tested on: U251 CNS
SN12C renal = tested on: SN12C renal
RXF 393 renal = tested on: RXF 393 renal
SNB-75 CNS = tested on: SNB-75 CNS
IGROV1 ovarian = tested on: IGROV1 ovarian

Question: Which TGI (SF-268 CNS) does the source give for `COc1cc(C2SCC(=O)N2c2ccc(-n3c(-c4ccccc4)nc4ccccc4c3=O)cc2)ccc1O` (configuration not stated) here?
Answer: The TGI was > 100 µM.

Question: And the TGI (NCI-H522 lung)?
Answer: The TGI was > 100 µM.

Question: What about the TGI (BT-549 breast) of the same molecule?
Answer: Its TGI is > 100 µM.

Question: What about the TGI (CCRF-CEM leukemia) of the same molecule?
Answer: The TGI was > 100 µM.

Question: And the TGI (PC-3 prostate)?
Answer: Its TGI is > 100 µM.

Question: What about the TGI (HCC-2998 colon) of the same molecule?
Answer: Its TGI is > 100 µM.

Question: And the TGI (NCI-H460 lung)?
Answer: The TGI was > 100 µM.

Question: And the TGI (HOP-62 NSCLC)?
Answer: Its TGI is > 100 µM.

Question: What about the TGI (EKVX NSCLC) of the same molecule?
Answer: The TGI was > 100 µM.

Question: What about the TGI (OVCAR-5 ovarian) of the same molecule?
Answer: The TGI was > 100 µM.

Question: What about the TGI (HL-60(TB) leukemia) of the same molecule?
Answer: The TGI was > 100 µM.

Question: And the TGI (UO-31 renal)?
Answer: Its TGI is 97.7 µM.

Question: What about the TGI (A549 NSCLC) of the same molecule?
Answer: Its TGI is > 100 µM.

Question: What about the TGI (OVCAR-4 ovarian) of the same molecule?
Answer: The TGI was > 100 µM.

Question: What about the TGI (786-0 renal) of the same molecule?
Answer: The TGI was > 100 µM.

Question: And the TGI (NCI-H23 lung)?
Answer: The TGI was > 100 µM.

Question: And the TGI (M14 melanoma)?
Answer: Its TGI is > 100 µM.

Question: And the TGI (MCF7 breast)?
Answer: Its TGI is > 100 µM.

Question: What about the TGI (HCT-15 colon) of the same molecule?
Answer: The TGI was > 100 µM.

Question: What about the TGI (A498 renal) of the same molecule?
Answer: The TGI was > 100 µM.

Question: What about the TGI (MDA-MB-231 breast) of the same molecule?
Answer: Its TGI is > 100 µM.

Question: What about the TGI (SNB-19 CNS) of the same molecule?
Answer: Its TGI is > 100 µM.

Question: What about the TGI (NCI/ADR-RES ovarian) of the same molecule?
Answer: Its TGI is > 100 µM.

Question: What about the TGI (DU-145 prostate) of the same molecule?
Answer: Its TGI is > 100 µM.

Question: What about the TGI (KM12 colon) of the same molecule?
Answer: The TGI was > 100 µM.

Question: What about the TGI (OVCAR-8 ovarian) of the same molecule?
Answer: The TGI was > 100 µM.

Question: What about the TGI (NCI-H226 lung) of the same molecule?
Answer: Its TGI is > 100 µM.

Question: What about the TGI (HCT-116 colon) of the same molecule?
Answer: Its TGI is > 100 µM.

Question: What about the TGI (MOLT-4 leukemia) of the same molecule?
Answer: Its TGI is > 100 µM.

Question: What about the TGI (SK-MEL-28 melanoma) of the same molecule?
Answer: Its TGI is > 100 µM.

Question: What about the TGI (LOX IMVI melanoma) of the same molecule?
Answer: The TGI was > 100 µM.

Question: And the TGI (SK-OV-3 ovarian)?
Answer: The TGI was > 100 µM.

Question: And the TGI (TK-10 renal)?
Answer: Its TGI is > 100 µM.

Question: What about the TGI (COLO 205 colon) of the same molecule?
Answer: The TGI was > 100 µM.

Question: And the TGI (SF-295 CNS)?
Answer: The TGI was > 100 µM.

Question: And the TGI (SK-MEL-2 melanoma)?
Answer: Its TGI is > 100 µM.

Question: What about the TGI (OVCAR-3 ovarian) of the same molecule?
Answer: Its TGI is > 100 µM.

Question: What about the TGI (UACC-62 melanoma) of the same molecule?
Answer: Its TGI is > 100 µM.

Question: And the TGI (SF-539 CNS)?
Answer: Its TGI is > 100 µM.

Question: And the TGI (MDA-MB-435)?
Answer: The TGI was > 100 µM.

Question: And the TGI (HOP-92 NSCLC)?
Answer: Its TGI is 68.9 µM.

Question: And the TGI (HS 578T breast)?
Answer: The TGI was > 100 µM.

Question: What about the TGI (CAKI-1 renal) of the same molecule?
Answer: Its TGI is > 100 µM.

Question: And the TGI (RPMI-8226 leukemia)?
Answer: Its TGI is > 100 µM.

Question: What about the TGI (HT29 colon) of the same molecule?
Answer: The TGI was > 100 µM.

Question: And the TGI (SR leukemia)?
Answer: The TGI was > 100 µM.

Question: And the TGI (MALME-3M melanoma)?
Answer: The TGI was > 100 µM.

Question: And the TGI (SK-MEL-5 melanoma)?
Answer: The TGI was > 100 µM.

Question: What about the TGI (T-47D breast) of the same molecule?
Answer: The TGI was > 100 µM.

Question: And the TGI (ACHN renal)?
Answer: The TGI was > 100 µM.

Question: And the TGI (SW-620 colon)?
Answer: Its TGI is > 100 µM.

Question: What about the TGI (UACC-257 melanoma) of the same molecule?
Answer: The TGI was > 100 µM.

Question: What about the TGI (MDA-N) of the same molecule?
Answer: The TGI was > 100 µM.

Question: What about the TGI (K-562 leukemia) of the same molecule?
Answer: Its TGI is > 100 µM.

Question: What about the TGI (U251 CNS) of the same molecule?
Answer: Its TGI is > 100 µM.

Question: Which results are given for `CN1C(=S)C(c2ccccc2)Sc2ccccc21` (configuration not stated)?
Answer: TGI (SF-268 CNS): > 100 µM; TGI (NCI-H522 lung): > 100 µM; TGI (BT-549 breast): > 100 µM; TGI (CCRF-CEM leukemia): > 100 µM; TGI (PC-3 prostate): > 100 µM; TGI (NCI-H460 lung): > 100 µM; TGI (HOP-62 NSCLC): > 100 µM; TGI (EKVX NSCLC): > 100 µM; TGI (OVCAR-5 ovarian): > 100 µM; TGI (HL-60(TB) leukemia): > 100 µM; TGI (UO-31 renal): > 100 µM; TGI (A549 NSCLC): > 100 µM; TGI (OVCAR-4 ovarian): > 100 µM; TGI (786-0 renal): > 100 µM; TGI (SN12C renal): > 100 µM; TGI (NCI-H23 lung): > 100 µM; TGI (M14 melanoma): > 100 µM; TGI (MCF7 breast): > 100 µM; TGI (HCT-15 colon): > 100 µM; TGI (MDA-MB-231 breast): > 100 µM; TGI (SNB-19 CNS): > 100 µM; TGI (NCI/ADR-RES ovarian): > 100 µM; TGI (DU-145 prostate): > 100 µM; TGI (RXF 393 renal): > 100 µM; TGI (KM12 colon): > 100 µM; TGI (OVCAR-8 ovarian): > 100 µM; TGI (SNB-75 CNS): > 100 µM; TGI (NCI-H226 lung): > 100 µM; TGI (HCT-116 colon): > 100 µM; TGI (MOLT-4 leukemia): > 100 µM; TGI (SK-MEL-28 melanoma): > 100 µM; TGI (LOX IMVI melanoma): > 100 µM; TGI (SK-OV-3 ovarian): > 100 µM; TGI (TK-10 renal): > 100 µM; TGI (COLO 205 colon): > 100 µM; TGI (SF-295 CNS): 89.4 µM; TGI (OVCAR-3 ovarian): > 100 µM; TGI (UACC-62 melanoma): > 100 µM; TGI (MDA-MB-435): > 100 µM; TGI (HS 578T breast): > 100 µM; TGI (CAKI-1 renal): > 100 µM; TGI (RPMI-8226 leukemia): > 100 µM; TGI (SR leukemia): > 100 µM; TGI (IGROV1 ovarian): > 100 µM; TGI (MALME-3M melanoma): > 100 µM; TGI (SK-MEL-5 melanoma): > 100 µM; TGI (T-47D breast): > 100 µM; TGI (ACHN renal): > 100 µM; TGI (UACC-257 melanoma): > 100 µM; TGI (MDA-N): > 100 µM; TGI (K-562 leukemia): > 100 µM; TGI (U251 CNS): > 100 µM
